Measurements: publication PMC7600679, “Benzoxazole-Based Metal Complexes to Reverse Multidrug Resistance in Bacteria” (Antibiotics, 2020)
Converted amounts (≈) assume the structure as drawn. Read-outs that look alike come from different tables or passages of the source.

What was measured:
E. coli AG100 [1] = experiment: Resistance modulation (MIC reduction) assay with CIP and TET; format: cell-based, Escherichia coli; settings: for MIC of antibiotic in the absence of the compounds: antibiotic alone
Description: (§1) The resistance modulation effects of compounds with ciprofloxacin (CIP) and tetracycline (TET) antibiotics were evaluated by the MIC reduction method on the Gram-negative E. coli AG100, AG100 A, and the Gram-positive S. aureus ATCC and MRSA strains.
(§2) The chemosensitizing activity of benzoxazole-type ligands and their metal complexes was determined based on the MIC values of the antibiotics in the presence of sub-inhibitory concentrations of the compounds (¼ MIC) in both Gram-negative and Gram-positive strains. The MICs were determined in strains by the two-fold broth microdilution method in 96-well plates, using serial dilutions of TET and CIP. The first four rows contained two-fold dilutions of antibiotics, and combinations of the TET and CIP and tested compounds were transferred into the last four rows. The 10^−4 dilution of an overnight bacterial culture in 50 μL of MHB was then measured to each well, except for the medium control wells. The plates were kept at 37 °C for 18 h. MIC values of antibiotics and their combination with tested compounds were detected by visual inspection.

S. aureus MRSA 272123 = experiment: as above; format: cell-based, Staphylococcus aureus; settings: for MIC of antibiotic in the absence of the compounds: antibiotic alone
Description: as §1, §2

E. coli AG100 A [2] = experiment: Real-time ethidium bromide accumulation (efflux pump inhibition); format: cell-based, Escherichia coli; settings: compounds at ¼ MIC, EB 1 μg/mL, minute 30
Description: (§3) Since multidrug resistance EPs are very important factors contributing to multidrug resistance (MDR) in both Gram-positive and Gram-negative bacteria, the inhibition of these pumps could reverse the resistant phenotype and restore the activity of antibiotics. The effect of compounds on ethidium bromide (EB) accumulation was determined by the automated EB method. This assay was used to determine how much of the fluorescent dye and pump substrate EB was accumulated by the bacterial cells in the presence of the tested compounds. The real-time accumulation of EB was monitored for 30 min in both S. aureus and E. coli strains.
(§4) The accumulation of the efflux pump substrate EB was monitored by the automated EB method using a LightCycler real-time thermocycler (LightCycler 1.5, Roche, Indianapolis, IN, USA). An aliquot of an overnight culture of the S. aureus strains in TSB medium was inoculated into fresh TSB medium, and it was incubated until it reached an optical density (OD) of 0.6 at 600 nm. In the case of E. coli strains, the medium applied in the assay was LB broth; the preparation of the inoculum was similar to the one of S. aureus. The cells were washed with phosphate buffered saline (PBS; pH 7.4) and centrifuged at 13,000 × g for 3 min, the pellets were re-suspended in PBS (pH 7.4), and the OD was calibrated to 0.6 at 600 nm. The compounds were measured at ¼ MIC concentration (in double-concentrated form) to the EB solution in PBS. The final concentration of EB was determined according to the MIC and the fluorescent signal produced by this amount of EB. In the case of all strains, the concentration of EB was 1 μg/mL. Then, 10 μL of the EB solution plus the compound were pipetted into standard glass capillary tubes of 20 µL maximum volume (Roche, Indianapolis, USA), and 10 μL of bacterial culture (OD of 0.6 at 600 nm) were transferred to the capillaries. The capillaries containing the samples were placed into the carousel, and the fluorescence was monitored at the FL-2 channel in every minute on a real-time basis.
(§5) Based on the data obtained, the relative fluorescence index (RFI) of the last time point (minute 30) was determined as follows:RFI = (RFtreated − RFuntreated)/RFuntreated(1) where RFtreated is the relative fluorescence (RF) at the last time point of the EB retention curve in the presence of an inhibitor, and RFuntreated is the relative fluorescence at the last time point of the EB retention curve of the untreated control having the solvent control (DMSO).

E. coli AG100 [3] = experiment: Real-time ethidium bromide accumulation (efflux pump inhibition, AcrAB-TolC); format: cell-based, Escherichia coli; settings: compounds at ¼ MIC, EB 1 μg/mL, minute 30
Description: as §3, §4, §5

E. coli AG100 [4] = experiment: Minimum inhibitory concentration (broth microdilution, CLSI); format: cell-based, Escherichia coli
Description: The strains were donated by Prof. Dr. Hiroshi Nikaido (Department of Molecular and Cell Biology and Chemistry, University of California, Berkeley, CA, USA).
(§6) The minimum inhibitory concentrations (MICs) of compounds were determined in 96-well plates based on the Clinical and Laboratory Standard Institute guidelines (CLSI guidelines). The compounds were diluted in 100 μL of MHB. Then, 10^−4 dilution of an overnight bacterial culture in 100 μL of medium were added to each well, with the exception of the medium control wells.

S. aureus 272123 (MRSA) [5] = experiment: Real-time ethidium bromide accumulation (efflux pump inhibition); format: cell-based, Staphylococcus aureus; settings: compounds at ¼ MIC (3 at 12.5 µM), VER at 25 µM, EB 1 μg/mL, minute 30
Description: as §3, §4, §5

S. aureus ATCC 25923 = experiment: as above; format: cell-based, Staphylococcus aureus; settings: compounds at ¼ MIC, EB 1 μg/mL, minute 30
Description: as §3, §4, §5

S. aureus 272123 (MRSA) [6] = experiment: Minimum inhibitory concentration (broth microdilution, CLSI); format: cell-based, Staphylococcus aureus; settings: 18 h, visual inspection
Description: (§7) The compounds were further investigated against two Gram-positive strains, S. aureus ATCC 25923 (MSSA), used as the methicillin susceptible reference strain, and the methicillin- and ofloxacin-resistant S. aureus 272123 clinical isolate (MRSA), which was given by Prof. Dr. Leonard Amaral (Institute of Hygiene and Tropical Medicine, Lisbon, Portugal).
as §6

E. coli AG100 A [7] = experiment: as above; format: cell-based, Escherichia coli; settings: 18 h
Description: Wild-type E. coli K-12 AG100 strain (argE3 thi-1 rpsL xyl mtl Δ(gal-uvrB) supE44) expressing the AcrAB TolC EP at its basal level and its AcrAB-TolC deleted mutant E. coli K-12 AG100 A strain. The strains were donated by Prof. Dr. Hiroshi Nikaido (Department of Molecular and Cell Biology and Chemistry, University of California, Berkeley, CA, USA).
as §6

[8] = test system: Enterobacter cloacae 31298; experiment: as above; format: cell-based; settings: E. cloacae 31298
Description: (§8) The following bacterial strains were applied in the QS tests: C. violaceum 026 as sensor strain and E. cloacae 31298 isolated from clinical wound (used as N-acyl-homoserine lactone (AHL) producer); this strain induced pigment production by C. violaceum and is a model strain to study QS interactions.
as §6

[9] = test system: Chromobacterium violaceum 026; experiment: as above; format: cell-based; settings: C. violaceum 026
Description: as §8, §6

[10] = test system: MRC-5 human embryonal lung fibroblast cell line; experiment: Cytotoxicity assay (MTT); format: cell-based
Description: The MRC-5 human embryonic lung fibroblast cell line (ATCC CCL-171; provider: LGC Promochem, Teddington, UK) was used in the experiments. The cells were cultivated in Eagle’s Minimal Essential Medium (EMEM; Sigma–Aldrich, St. Louis, MO, USA), supplemented with 1% non-essential amino acid mixture, 10% heat-inactivated fetal bovine serum, 2 mM L-glutamine, 1 mM Na-pyruvate, nystatin, and a penicillin–streptomycin mixture in concentrations of 100 U/L and 10 mg/L, respectively. The supplementary components were obtained from Sigma–Aldrich, St. Louis, MO, USA. The cell culture was kept in a humidified atmosphere (5% CO2, 95% air) at 37 °C.
The activity of increasing concentrations of the compounds on cell growth was determined in 96-well flat-bottomed microtiter plates by two-fold serial dilutions of the benzoxazole derivatives. The adherent human embryonic lung fibroblast cells (10^4/well) was seeded in EMEM medium in 96-well microtiter plates for 4 h prior to the assay. The serial dilutions of the compounds were made in a separate plate, and then pipetted to the plates containing the MRC-5 cell line. Culture plates were incubated at 37 °C for 24 h; at the end of the incubation period, 20 μL of MTT (3-(4,5-dimethylthiazol-2-yl)-2,5-diphenyltetrazolium bromide) solution (from a 5 mg/mL stock solution) was measured to each well. After the incubation at 37 °C for 4 h, 100 μL of sodium dodecyl sulfate (SDS) solution (10% SDS in 0.01 M HCl) was added to each well to dissolve the formazan crystals and the samples were further incubated at 37 °C overnight. Cell growth was calculated by measuring the OD at 540 nm (ref. 630 nm) with a Multiscan EX ELISA reader. The cytotoxicity was expressed as IC50 values, defined as the inhibitory dose that reduces the growth of the cells exposed to the tested compounds by 50%.

[11] = test system: Staphylococcus aureus ATCC 25923; experiment: Minimum inhibitory concentration (broth microdilution, CLSI); format: cell-based; settings: S. aureus ATCC 25923, 18 h, visual inspection
Description: as §7, §6

[12] = Staphylococcus aureus, ATCC25923
[13] = Escherichia coli, E. coli AG100, 18 h, visual inspection, read-out: MIC
[14] = E. coli AG100, 18 h, visual inspection, read-out: MIC
[15] = E. coli AG100 A (AcrAB-TolC deleted), visual inspection
[16] = compound at ¼ MIC, value is the MIC of ciprofloxacin

Compound	Relative fluorescence index (RFI) (E. coli AG100 A [2])	Relative fluorescence index (RFI) (E. coli AG100 [3])	Relative fluorescence index (RFI) (S. aureus 272123 (MRSA) [5])	Relative fluorescence index (RFI) (S. aureus ATCC 25923)	MIC (S. aureus 272123 (MRSA) [6])	MIC (S. aureus 272123 (MRSA) [6]; Staphylococcus aureus)	MIC (E. coli AG100 A [7]; Escherichia coli, AG100A)	MIC ([8]; Enterobacter cloacae)	MIC ([9]; Chromobacterium violaceum)	Cytotoxic effect (class in words) ([10]; 24 h)	IC50 ([10]; Homo sapiens, MRC5, 24 h)	MIC [11, 12]	further results
O=C(O)c1cn(C2CC2)c2cc(N3CCNCC3)c(F)cc2c1=O [CIP, ciprofloxacin, reference compound]													MIC of antibiotic in the absence of the compounds (E. coli AG100 [1]): 0.016 µM; MIC of antibiotic in the absence of the compounds (S. aureus MRSA 272123): 12.5 µM
O=C(Cc1nc2ccccc2o1)C(F)(F)F [Compound 1, 2-trifluoroacetonylbenzoxazole]	0	−0.35	−0.14	−0.11	12.5 µM (≈ 2.86 µg/mL)	12.5 µM (≈ 2.86 µg/mL)	50 µM (≈ 11.5 µg/mL)	> 100 µM	> 100 µM	no (IC50 > 100 µM)	> 100 µM	25 µM (≈ 5.73 µg/mL)	MIC (E. coli AG100 [4]; Escherichia coli, AG100, 18 h): 50 µM (≈ 11.5 µg/mL)
O=C(Cc1nc2ccccc2o1)C(F)(F)Cl [Compound 2]	−0.01	0.17	−0.07	−0.07	3.125 µM (≈ 0.768 µg/mL)	3.12 µM (≈ 0.768 µg/mL)	25 µM (≈ 6.14 µg/mL)	> 100 µM	> 100 µM	no (IC50 > 100 µM)	> 100 µM	12.5 µM (≈ 3.07 µg/mL)	MIC (E. coli AG100 [4]; [13]): 50 µM (≈ 12.3 µg/mL)
[O-]C(=Cc1nc2ccccc2o1)C(F)F.[O-]C(=Cc1nc2ccccc2o1)C(F)F.[Zn+2] [Compound 6]	−0.15	0.08	−0.02	0.08	12.5 µM					strong (IC50: 0–30)			MIC (E. coli AG100 [4]; [14]): 50 µM; MIC (E. coli AG100 A [7]; [15]): 12.5 µM; MIC [8]: >100 µM; MIC [9]: >100 µM; IC50 ([10]; 24 h): 4.72 µM; MIC [11]: 25 µM
FC(F)(F)C1=Cc2oc3ccccc3[n+]2[Mg-2]2([O]1)[O]C(C(F)(F)F)=Cc1oc3ccccc3[n+]12 [Compound 9]						6.25 µM	25 µM	> 100 µM	> 100 µM	no (IC50 > 100 µM)	> 100 µM	25 µM	MIC (E. coli AG100 [4]; [13]): 50 µM; Reduction of the MIC of CIP (E. coli AG100 [1]; compound at ¼ MIC): 2 fold; CIP MIC in combination with compounds (E. coli AG100 [1]; [16]): 0.008 µM; Reduction of the MIC value of CIP (S. aureus MRSA 272123; compound at a quarter of the MIC): 2 fold; CIP MIC in combination with compounds (S. aureus MRSA 272123; [16]): 6.25 µM
[O-]C(=Cc1nc2ccccc2o1)C(F)(F)F.[O-]C(=Cc1nc2ccccc2o1)C(F)(F)F.[Pd+2] [Compound 10]	0	−0.06	0	0	>100 µM					weak (IC50: 61–100)			MIC (E. coli AG100 [4]; [14]): >100 µM; MIC (E. coli AG100 A [7]; [15]): >100 µM; MIC [8]: >100 µM; MIC [9]: >100 µM; IC50 ([10]; 24 h): 89.1 µM; MIC [11]: >100 µM
CN(C)[C@@H]1C(O)=C(C(N)=O)C(=O)[C@@]2(O)C(O)=C3C(=O)c4c(O)cccc4[C@@](C)(O)[C@H]3C[C@@H]12 [TET, tetracycline, reference compound]													MIC of antibiotic in the absence of the compounds (E. coli AG100 [1]): 50 µM; MIC of antibiotic in the absence of the compounds (S. aureus MRSA 272123): 6.25 µM
